Experimental data as given in ChEMBL document CHEMBL3991601, “The target landscape of clinical kinase drugs” (Science, 2017).
The source made the active and inactive calls.

What was measured:
[1] = target: Serine/threonine-protein kinase PAK 4 (Homo sapiens, UniProt O96013)
[2] = target: T1, Mitogen-activated protein kinase 15 (Homo sapiens, UniProt Q8TD08)
T1 sequence (Q8TD08 whole entry): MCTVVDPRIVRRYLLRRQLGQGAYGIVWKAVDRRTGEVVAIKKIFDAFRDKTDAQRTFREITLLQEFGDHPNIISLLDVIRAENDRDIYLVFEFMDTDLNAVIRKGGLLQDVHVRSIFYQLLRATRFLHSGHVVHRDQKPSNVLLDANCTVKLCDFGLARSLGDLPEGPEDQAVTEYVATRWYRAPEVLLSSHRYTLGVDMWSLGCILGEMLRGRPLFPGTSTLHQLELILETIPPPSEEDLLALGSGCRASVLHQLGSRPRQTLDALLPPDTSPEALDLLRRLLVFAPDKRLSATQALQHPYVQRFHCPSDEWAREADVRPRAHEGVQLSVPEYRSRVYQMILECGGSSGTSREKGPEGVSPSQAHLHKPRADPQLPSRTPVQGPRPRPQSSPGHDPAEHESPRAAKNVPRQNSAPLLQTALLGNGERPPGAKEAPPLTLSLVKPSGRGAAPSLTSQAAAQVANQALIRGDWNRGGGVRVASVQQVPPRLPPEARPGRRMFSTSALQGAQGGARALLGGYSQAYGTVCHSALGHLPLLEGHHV

[3] = target: Adenosine kinase (Homo sapiens, UniProt P55263)
[4] = target: Deoxycytidine kinase (Homo sapiens, UniProt P27707)
[5] = target: RAC-gamma serine/threonine-protein kinase (Homo sapiens, UniProt Q9Y243)
[6] = target: T2, Serine/threonine-protein kinase TAO2 (Homo sapiens, UniProt Q9UL54)
T2 sequence (Q9UL54 whole entry): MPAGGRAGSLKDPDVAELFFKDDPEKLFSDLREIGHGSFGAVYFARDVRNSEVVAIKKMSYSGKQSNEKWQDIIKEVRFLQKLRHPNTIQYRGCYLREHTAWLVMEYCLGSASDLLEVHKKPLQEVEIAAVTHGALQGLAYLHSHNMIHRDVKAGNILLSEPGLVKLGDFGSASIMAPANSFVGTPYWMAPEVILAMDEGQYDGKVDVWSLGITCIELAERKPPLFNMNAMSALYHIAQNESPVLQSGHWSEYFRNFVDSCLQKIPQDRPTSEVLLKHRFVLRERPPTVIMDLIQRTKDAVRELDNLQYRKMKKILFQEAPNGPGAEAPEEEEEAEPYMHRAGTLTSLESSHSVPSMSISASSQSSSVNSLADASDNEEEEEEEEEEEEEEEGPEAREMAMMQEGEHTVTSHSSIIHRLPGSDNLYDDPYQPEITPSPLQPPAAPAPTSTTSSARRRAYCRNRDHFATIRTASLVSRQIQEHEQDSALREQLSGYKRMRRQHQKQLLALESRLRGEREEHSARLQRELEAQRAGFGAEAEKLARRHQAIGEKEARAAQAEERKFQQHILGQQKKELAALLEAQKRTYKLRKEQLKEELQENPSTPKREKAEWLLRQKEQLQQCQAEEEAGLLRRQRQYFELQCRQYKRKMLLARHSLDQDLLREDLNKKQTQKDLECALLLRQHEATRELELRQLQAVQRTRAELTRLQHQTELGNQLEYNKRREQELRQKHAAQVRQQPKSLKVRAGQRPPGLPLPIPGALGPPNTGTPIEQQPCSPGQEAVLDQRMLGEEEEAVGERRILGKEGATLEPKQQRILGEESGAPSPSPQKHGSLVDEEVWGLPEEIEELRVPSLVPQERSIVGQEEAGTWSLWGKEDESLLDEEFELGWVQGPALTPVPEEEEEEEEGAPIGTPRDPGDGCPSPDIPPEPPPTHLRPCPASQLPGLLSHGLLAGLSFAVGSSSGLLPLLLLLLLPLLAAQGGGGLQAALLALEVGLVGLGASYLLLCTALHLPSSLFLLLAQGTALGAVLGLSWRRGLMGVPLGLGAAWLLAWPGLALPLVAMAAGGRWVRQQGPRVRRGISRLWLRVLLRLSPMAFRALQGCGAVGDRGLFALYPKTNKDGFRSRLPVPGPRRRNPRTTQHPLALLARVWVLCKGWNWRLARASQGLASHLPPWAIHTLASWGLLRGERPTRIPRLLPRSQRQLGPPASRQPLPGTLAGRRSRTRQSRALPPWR

[7] = target: T3, Ferrochelatase, mitochondrial (Homo sapiens, UniProt P22830)
T3 sequence (P22830 whole entry): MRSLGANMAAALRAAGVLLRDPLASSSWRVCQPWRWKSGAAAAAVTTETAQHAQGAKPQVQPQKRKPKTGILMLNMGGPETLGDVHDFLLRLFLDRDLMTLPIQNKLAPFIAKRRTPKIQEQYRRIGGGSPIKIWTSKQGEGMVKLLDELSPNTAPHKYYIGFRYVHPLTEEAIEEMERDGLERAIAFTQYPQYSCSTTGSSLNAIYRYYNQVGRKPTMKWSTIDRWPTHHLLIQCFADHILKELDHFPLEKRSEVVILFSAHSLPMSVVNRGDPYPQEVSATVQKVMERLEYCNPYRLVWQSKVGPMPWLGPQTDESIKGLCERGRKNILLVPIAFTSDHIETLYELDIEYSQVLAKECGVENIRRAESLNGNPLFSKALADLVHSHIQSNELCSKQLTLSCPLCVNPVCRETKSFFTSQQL

[8] = target: Putative heat shock protein HSP 90-beta 2 (Homo sapiens, UniProt Q58FF8)
[9] = target: Actin-related protein 2 (Homo sapiens, UniProt P61160)
[10] = target: Ephrin type-A receptor 4 (Homo sapiens, UniProt P54764)
Further: in the data inactive means no Kd found up to 30 µM.

Chain of Ephrin type-A receptor 4 (P54764 whole entry): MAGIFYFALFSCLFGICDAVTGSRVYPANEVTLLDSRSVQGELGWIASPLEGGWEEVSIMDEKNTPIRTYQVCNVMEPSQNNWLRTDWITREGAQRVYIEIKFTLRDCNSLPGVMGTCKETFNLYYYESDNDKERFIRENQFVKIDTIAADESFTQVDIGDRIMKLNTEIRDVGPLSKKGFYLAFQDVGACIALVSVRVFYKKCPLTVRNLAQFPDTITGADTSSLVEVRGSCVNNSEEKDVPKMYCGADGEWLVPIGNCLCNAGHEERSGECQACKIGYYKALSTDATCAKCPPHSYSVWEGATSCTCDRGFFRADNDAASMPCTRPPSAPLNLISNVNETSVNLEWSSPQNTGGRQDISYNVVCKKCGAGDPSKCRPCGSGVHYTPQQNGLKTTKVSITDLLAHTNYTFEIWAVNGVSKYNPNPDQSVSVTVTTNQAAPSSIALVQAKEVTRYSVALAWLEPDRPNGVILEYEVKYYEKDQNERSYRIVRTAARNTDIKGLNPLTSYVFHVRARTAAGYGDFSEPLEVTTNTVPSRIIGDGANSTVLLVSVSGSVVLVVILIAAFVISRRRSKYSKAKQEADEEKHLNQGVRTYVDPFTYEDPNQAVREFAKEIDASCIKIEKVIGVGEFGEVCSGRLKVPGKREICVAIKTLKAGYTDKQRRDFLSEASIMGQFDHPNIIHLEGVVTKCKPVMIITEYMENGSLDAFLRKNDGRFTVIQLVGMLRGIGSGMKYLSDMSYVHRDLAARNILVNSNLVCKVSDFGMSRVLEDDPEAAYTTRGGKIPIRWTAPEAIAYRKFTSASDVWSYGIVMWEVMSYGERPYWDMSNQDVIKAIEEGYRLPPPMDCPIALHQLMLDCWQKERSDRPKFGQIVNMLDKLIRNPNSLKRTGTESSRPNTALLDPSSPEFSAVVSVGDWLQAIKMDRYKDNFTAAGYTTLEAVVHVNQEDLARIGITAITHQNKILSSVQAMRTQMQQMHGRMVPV
Chain of Serine/threonine-protein kinase PAK 4 (O96013 whole entry): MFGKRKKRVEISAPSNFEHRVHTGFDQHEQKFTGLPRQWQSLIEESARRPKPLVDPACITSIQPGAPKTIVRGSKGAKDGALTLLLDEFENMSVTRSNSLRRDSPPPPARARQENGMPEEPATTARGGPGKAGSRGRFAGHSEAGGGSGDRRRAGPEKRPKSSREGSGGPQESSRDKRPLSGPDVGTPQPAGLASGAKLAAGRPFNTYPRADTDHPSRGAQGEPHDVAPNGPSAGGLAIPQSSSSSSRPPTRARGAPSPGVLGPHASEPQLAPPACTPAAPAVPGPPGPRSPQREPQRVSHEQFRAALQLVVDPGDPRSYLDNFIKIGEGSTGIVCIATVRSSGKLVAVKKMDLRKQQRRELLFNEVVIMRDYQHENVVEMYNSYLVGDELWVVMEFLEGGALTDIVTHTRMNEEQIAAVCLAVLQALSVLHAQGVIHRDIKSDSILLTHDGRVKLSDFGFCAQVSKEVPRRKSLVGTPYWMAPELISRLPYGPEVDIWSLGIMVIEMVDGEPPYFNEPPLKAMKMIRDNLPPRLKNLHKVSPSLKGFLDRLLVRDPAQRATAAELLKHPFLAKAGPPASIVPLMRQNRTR
Chain of Adenosine kinase (P55263 whole entry): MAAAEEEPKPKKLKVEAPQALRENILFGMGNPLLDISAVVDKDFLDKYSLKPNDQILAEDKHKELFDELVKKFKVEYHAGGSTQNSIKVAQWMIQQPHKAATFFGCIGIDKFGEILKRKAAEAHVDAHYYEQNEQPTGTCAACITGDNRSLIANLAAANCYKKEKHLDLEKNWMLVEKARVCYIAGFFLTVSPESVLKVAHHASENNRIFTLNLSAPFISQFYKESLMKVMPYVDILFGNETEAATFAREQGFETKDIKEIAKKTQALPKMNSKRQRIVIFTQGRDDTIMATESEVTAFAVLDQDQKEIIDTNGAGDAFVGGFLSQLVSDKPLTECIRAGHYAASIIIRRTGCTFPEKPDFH
Chain of RAC-gamma serine/threonine-protein kinase (Q9Y243 whole entry): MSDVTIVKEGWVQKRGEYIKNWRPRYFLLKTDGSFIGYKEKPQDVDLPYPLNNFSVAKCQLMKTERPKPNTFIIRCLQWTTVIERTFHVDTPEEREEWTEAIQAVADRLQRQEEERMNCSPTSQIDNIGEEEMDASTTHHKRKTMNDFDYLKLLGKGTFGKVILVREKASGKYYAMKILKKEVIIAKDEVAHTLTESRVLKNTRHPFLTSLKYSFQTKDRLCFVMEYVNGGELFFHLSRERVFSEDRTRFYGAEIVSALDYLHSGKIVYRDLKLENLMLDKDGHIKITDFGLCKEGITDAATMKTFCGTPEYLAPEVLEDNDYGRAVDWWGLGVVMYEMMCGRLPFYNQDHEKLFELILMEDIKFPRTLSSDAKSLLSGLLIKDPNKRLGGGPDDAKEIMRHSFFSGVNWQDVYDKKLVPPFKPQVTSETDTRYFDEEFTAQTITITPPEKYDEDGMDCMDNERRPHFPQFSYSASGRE
Chain of Putative heat shock protein HSP 90-beta 2 (Q58FF8 whole entry): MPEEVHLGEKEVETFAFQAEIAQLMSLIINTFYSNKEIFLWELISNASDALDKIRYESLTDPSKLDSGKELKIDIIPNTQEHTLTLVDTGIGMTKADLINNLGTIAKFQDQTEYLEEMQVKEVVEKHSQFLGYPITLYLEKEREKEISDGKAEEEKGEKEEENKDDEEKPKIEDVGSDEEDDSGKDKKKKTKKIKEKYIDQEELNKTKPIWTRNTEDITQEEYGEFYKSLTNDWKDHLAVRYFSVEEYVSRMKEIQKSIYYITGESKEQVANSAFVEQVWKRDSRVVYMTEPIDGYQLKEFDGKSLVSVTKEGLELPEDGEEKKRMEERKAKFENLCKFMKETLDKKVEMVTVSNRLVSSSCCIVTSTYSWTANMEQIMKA
Chain of Deoxycytidine kinase (P27707 whole entry): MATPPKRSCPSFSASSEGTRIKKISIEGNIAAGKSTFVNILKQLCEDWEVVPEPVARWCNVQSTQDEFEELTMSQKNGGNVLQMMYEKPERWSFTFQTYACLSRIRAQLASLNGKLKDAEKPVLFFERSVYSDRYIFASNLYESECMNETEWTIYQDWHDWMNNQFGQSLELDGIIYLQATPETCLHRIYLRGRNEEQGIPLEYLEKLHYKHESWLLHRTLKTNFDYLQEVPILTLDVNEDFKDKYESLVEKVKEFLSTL

Compound	Kd [1]	Kd [2]	Kd [3]	Kd [4]	Kd [5]	Kd [6]	Kd [7]	Kd [8]	Kd [9]	Kd [10]
O=C1NC(=O)[C@@H](c2cn3c4c(cccc24)CCC3)[C@@H]1c1c[nH]c2ccccc12 [TIVANTINIB]	> 30 µM (inactive)	> 30 µM (inactive)	> 30 µM (inactive)	> 30 µM (inactive)	> 30 µM (inactive)	> 30 µM (inactive)	> 30 µM (inactive)	> 30 µM (inactive)	> 30 µM (inactive)	> 30 µM (inactive)
C[C@@H](NC(=O)c1ncnc(N)c1Cl)c1ncc(C(=O)Nc2cc(C(F)(F)F)c(Cl)cn2)s1 [TOVORAFENIB]	> 30 µM (inactive)	> 30 µM (inactive)	> 30 µM (inactive)	> 30 µM (inactive)	> 30 µM (inactive)	> 30 µM (inactive)	> 30 µM (inactive)	> 30 µM (inactive)	> 30 µM (inactive)	> 30 µM (inactive)
Cc1cc(Nc2ncnc3ccc(NC4=NC(C)(C)CO4)cc23)ccc1Oc1ccn2ncnc2c1 [TUCATINIB]	> 30 µM (inactive)	> 30 µM (inactive)	> 30 µM (inactive)	> 30 µM (inactive)	> 30 µM (inactive)	> 30 µM (inactive)	3.91 µM (active)	> 30 µM (inactive)	> 30 µM (inactive)	> 30 µM (inactive)
C[C@@H](N)c1ccc(C(=O)Nc2ccnc3[nH]ccc23)cc1 [Y-39983]	> 30 µM (inactive)	> 30 µM (inactive)	> 30 µM (inactive)	> 30 µM (inactive)	> 30 µM (inactive)	> 30 µM (inactive)	> 30 µM (inactive)	> 30 µM (inactive)	> 30 µM (inactive)	> 30 µM (inactive)
CN1C/C=C/CCOc2cccc(c2)-c2ccnc(n2)Nc2cccc(c2)C1 [ZOTIRACICLIB]	> 30 µM (inactive)	1.07 µM (active)	> 30 µM (inactive)	> 30 µM (inactive)	> 30 µM (inactive)	1.07 µM (active)	0.243 µM	> 30 µM (inactive)	> 30 µM (inactive)	> 30 µM (inactive)
